In patent publication US20250302913A1, “LACRIPEP PROMOTES NEUROREGENERATION AND MAINTAINS EPITHELIAL PROGENITOR CELL IDENTITY” (The Regents of The University of California, priority 2022, published 2025):

Columns and labels:
syndecan-1 (SDC1) = target: T1, syndecan-1 (SDC1) (Homo sapiens, UniProt P18827); conditions: cited from earlier work
T1 sequence (P18827 23-310): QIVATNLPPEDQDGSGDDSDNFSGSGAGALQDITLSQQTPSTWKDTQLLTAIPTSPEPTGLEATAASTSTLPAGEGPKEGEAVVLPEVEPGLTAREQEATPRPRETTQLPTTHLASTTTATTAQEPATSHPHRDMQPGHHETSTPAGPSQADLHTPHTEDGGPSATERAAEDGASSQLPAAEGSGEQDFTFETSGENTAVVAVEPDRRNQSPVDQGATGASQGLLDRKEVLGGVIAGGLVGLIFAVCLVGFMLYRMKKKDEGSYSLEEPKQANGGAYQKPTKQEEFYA

[1] = system: intraepithelial sensory nerve terminals; assay: Intraepithelial sensory nerve terminals by 3D imaging (IMARIS); type: in vivo, mouse; conditions: day 7
From the text: We next determined the extent of functional reinnervation of the cornea at day 7 by assessing the distribution of sensory nerve endings (nerve terminals) within the epithelial layers in lacripep-treated Aire KO corneas compared to WT and PBS KO controls (FIG. 3D). Sensory nerve terminals within the corneal epithelium respond to changes in the thickness and stability of the tear film to promote basal tear secretion, while also triggering epithelial responses to restore homeostasis through the release of neurotransmitters. […]
Quantification of corneal epithelial nerve density and synapses. Tissue sections: TUBB3+ nerve density within 300 μm sections of central cornea epithelial ROI was quantified by applying Tsai's thresholding method (Moments), with integrated densities within the ROI of the thresholded image being recorded. Corneal whole mounts: The density of nerves expressing GAP43, TUBB3, or GAP43 and TUBB3 (% Area of 354 μm×396 μm) was quantified from central cornea images of whole mount cornea and plotted in a stacked bar graph to visualize the proportion of each of the three nerve types. Similarly, numbers of synapses marked by expression of GAP43, TUBB3, or GAP43 and TUBB3 were counted per respective region of central cornea (100 μm2) and plotted in a stacked bar graph. […]
3D reconstruction of nerve fibers. […] Touching nuclei were split by the calculated seed points inside each area.

Ac-KQFIENGSEFAQKLLKKFSLLKPWA-NH2 [lacripep, amino terminus acetylated, carboxyl terminus aminated]
binding and activation of syndecan-1 (syndecan-1 (SDC1)): bind and activate
intraepithelial sensory nerve terminals ([1]; PBS 5, WT 78): 50 per 0.1 mm^2
proportion of sensory nerve terminals expressing GAP43 as opposed to only TUBB3 ([1]; compared to WT controls): increase
